A value given as a limit tells only on which side of the number the result lay.

For assay [1], the system named is Rattus norvegicus. In words: Dose producing 10% decrease in heart rate of anaesthetized spontaneous hypertensive male rat(SHR). It is filed as functional.
Assay [2] relates to Rattus norvegicus. Briefly: Dose producing 30% decrease in blood pressure of anesthetized spontaneous hypertensive male rat(SHR). It is filed as functional.
Assay [3] has as its target T1, Adenosine receptor A1 (Rattus norvegicus, UniProt P25099).
T1 sequence (P25099 whole entry): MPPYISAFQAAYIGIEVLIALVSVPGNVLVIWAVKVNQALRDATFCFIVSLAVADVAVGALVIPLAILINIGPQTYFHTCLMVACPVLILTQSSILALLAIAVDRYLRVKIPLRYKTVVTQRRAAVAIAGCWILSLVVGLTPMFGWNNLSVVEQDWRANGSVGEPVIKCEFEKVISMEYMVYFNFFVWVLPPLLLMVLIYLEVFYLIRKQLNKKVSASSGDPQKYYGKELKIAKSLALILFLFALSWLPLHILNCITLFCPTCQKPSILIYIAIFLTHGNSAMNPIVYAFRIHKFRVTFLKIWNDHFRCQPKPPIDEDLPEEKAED
Briefly: Inhibition of [3H]CHA binding to adenosine A1 receptor from rat brain membranes. The assay is classed as cell membranes, Membrane.

The target of assay [4] is Adenosine A2 receptor (Rattus norvegicus, UniProt P29276+P30543).
Description: Inhibition of [3H]NECA binding to adenosine A2 receptor from rat striatal membranes

In assay [1], `Nc1nc(C#CC(O)c2ccccc2)nc2c1ncn2[C@@H]1O[C@H](CO)[C@@H](O)[C@H]1O` (stereo not given in full) displayed an ED10 of 1.3 µg/kg. The ED30 in assay [2] amounted to 0.05 µg/kg. Also, the Ki – broadly, a dissociation constant, usually derived from enzyme kinetics or from competition with a known ligand – in assay [3] is 0.0034 µM; in assay [4] it was 0.0019 µM.

Compound `CC(O)C#Cc1nc(N)c2ncn([C@@H]3O[C@H](CO)[C@@H](O)[C@H]3O)c2n1` (stereo not given in full) gave an ED10 in assay [1] of 0.8 µg/kg. This compound had an ED30 in assay [2] of 0.15 µg/kg. Besides, the Ki in assay [3] is 0.015 µM; in assay [4], 0.018 µM.

`Nc1nc(C#CCCC2CCCCC2)nc2c1ncn2C1O[C@H](CO)[C@@H](O)[C@H]1O` (stereo not given in full) yielded an ED10 in assay [1] of more than 100 µg/kg. Further, in assay [2], the ED30 amounted to 0.48 µg/kg. For the same compound, the Ki in assay [3] is 0.313 µM; in assay [4], 0.026 µM.

In assay [1], `Nc1nc(C#CC2CCCC2)nc2c1ncn2[C@@H]1O[C@H](CO)[C@@H](O)[C@H]1O` had an ED10 of more than 100 µg/kg. The compound further yielded an ED30 in assay [2] of 0.29 µg/kg. Besides, the values for the Ki in assay [3] and in assay [4] were 0.088 µM and 0.012 µM, respectively.

As to `CC(C)(O)C#Cc1nc(N)c2ncn([C@@H]3O[C@H](CO)[C@@H](O)[C@H]3O)c2n1`, the ED10 in assay [1] stood at 1.4 µg/kg. The same compound showed an ED30 in assay [2] of 0.14 µg/kg. In addition, the Ki in assay [3] is 0.032 µM; in assay [4] it was 0.019 µM.

`Nc1nc(C#Cc2ccccc2)nc2c1ncn2[C@@H]1O[C@H](CO)[C@@H](O)[C@H]1O` showed an ED10 in assay [1] of more than 100 µg/kg. In assay [2], this compound registered an ED30 of 10.1 µg/kg. Further, the Ki in assay [3] is 0.701 µM; in assay [4], 0.109 µM.

As to `Nc1nc(C#CCC2CCCC2)nc2c1ncn2[C@@H]1O[C@H](CO)[C@@H](O)[C@H]1O`, the ED10 in assay [1] was more than 100 µg/kg. This compound also returned an ED30 in assay [2] of 0.05 µg/kg. The compound further registered a Ki in assay [4] of 0.0023 µM.

In assay [1], `COc1cc(OC)cc(C(CNc2ncnc3c2ncn3[C@@H]2O[C@H](CO)[C@@H](O)[C@H]2O)c2ccccc2C)c1` (stereo not given in full) had an ED10 of more than 100 µg/kg. Also, the Ki came to 0.108 µM in assay [3] and 0.0069 µM in assay [4].

Take `CCCC(O)C#Cc1nc(N)c2ncn(C3O[C@H](CO)[C@@H](O)[C@H]3O)c2n1` (stereo not given in full): the ED10 in assay [1] turned out to be 0.83 µg/kg. Moreover, in assay [2], the ED30 came out at 0.04 µg/kg. Besides, the Ki in assay [3] was 0.016 µM; in assay [4], 0.0018 µM.

`Nc1nc(C#CC2(O)CCCC2)nc2c1ncn2C1O[C@H](CO)[C@@H](O)[C@H]1O` (stereo not given in full) came in with an ED10 in assay [1] of 1.6 µg/kg. For the same compound, the ED30 in assay [2] was found to be 0.07 µg/kg. For the same compound, the results for the Ki in assay [3] and in assay [4] were 0.011 µM and 0.0033 µM, respectively.

On to `CCCCCC(O)C#Cc1nc(N)c2ncn(C3O[C@H](CO)[C@@H](O)[C@H]3O)c2n1` (stereo not given in full), for which the ED10 in assay [1] was found to be 0.45 µg/kg. Also, the ED30 in assay [2] came to 0.06 µg/kg. In addition, the results for the Ki in assay [3] and in assay [4] were 0.011 µM and 0.002 µM, respectively.

Consider `CCCCC#Cc1nc(N)c2ncn([C@@H]3O[C@H](CO)[C@@H](O)[C@H]3O)c2n1`, for which the ED10 in assay [1] stood at 67 µg/kg. The compound further showed an ED30 in assay [2] of 0.11 µg/kg.

The compound `CCCCCCC#Cc1nc(N)c2ncn([C@@H]3O[C@H](CO)[C@@H](O)[C@H]3O)c2n1` yielded an ED10 in assay [1] of more than 100 µg/kg. The ED30 in assay [2] came to 0.2 µg/kg. The Ki in assay [3] was determined as 0.133 µM; in assay [4], 0.0079 µM.

In assay [1], `Nc1nc(C#CC2(O)CCCCCC2)nc2c1ncn2[C@@H]1O[C@H](CO)[C@@H](O)[C@H]1O` yielded an ED10 of 5.6 µg/kg. The ED30 in assay [2] is 0.02 µg/kg. Further, the values for the Ki in assay [3] and in assay [4] were 0.027 µM and 0.0011 µM, respectively.

In assay [1], `Nc1nc(C#CCCCC2CCCCC2)nc2c1ncn2C1O[C@H](CO)[C@@H](O)[C@H]1O` (stereo not given in full) returned an ED10 of more than 100 µg/kg. The ED30 in assay [2] turned out to be 1.64 µg/kg. Moreover, the Ki was more than 0.229 µM in assay [3] and 0.046 µM in assay [4].

For `Nc1nc(C#CC2(O)CCCCC2)nc2c1ncn2[C@@H]1O[C@H](CO)[C@@H](O)[C@H]1O`, in assay [1], the ED10 is 3.5 µg/kg. The same compound showed an ED30 in assay [2] of 0.02 µg/kg.

As to `Nc1nc(C#CCC2CCCCC2)nc2c1ncn2C1O[C@H](CO)[C@@H](O)[C@H]1O` (stereo not given in full), the ED10 in assay [1] was more than 100 µg/kg. In addition, the ED30 in assay [2] is 0.15 µg/kg.

For `Nc1nc(C#CCCC2CCCC2)nc2c1ncn2C1O[C@H](CO)[C@@H](O)[C@H]1O` (stereo not given in full), in assay [1], the ED10 was more than 100 µg/kg. In addition, in assay [2], the ED30 was 0.16 µg/kg. Further, the results for the Ki in assay [3] and in assay [4] were 0.136 µM and 0.0034 µM, respectively.

Compound `Nc1nc(C#CC2CCCCC2)nc2c1ncn2C1O[C@H](CO)[C@@H](O)[C@H]1O` (stereo not given in full) had an ED10 in assay [1] of more than 100 µg/kg. In assay [2], the ED30 is 0.36 µg/kg. In addition, the Ki in assay [3] is 0.138 µM; in assay [4] it was 0.01 µM.

The compound `Nc1nc(C#CCO)nc2c1ncn2[C@@H]1O[C@H](CO)[C@@H](O)[C@H]1O` came in with an ED10 in assay [1] of 0.74 µg/kg. In assay [2], this compound registered an ED30 of 0.36 µg/kg. For the same compound, the figures for the Ki in assay [3] and in assay [4] were 0.0083 µM and 0.02 µM, respectively.

Take `CCNC(=O)[C@H]1O[C@@H](n2cnc3c(N)nc(NCCc4ccc(CCC(=O)O)cc4)nc32)[C@H](O)[C@@H]1O` [CGS-21680]: the ED10 in assay [1] was more than 100 µg/kg. In assay [2], this compound came in with an ED30 of 0.97 µg/kg.

With `Nc1nc(C#CCCc2ccccc2)nc2c1ncn2[C@@H]1O[C@H](CO)[C@@H](O)[C@H]1O`, the ED10 in assay [1] was more than 100 µg/kg. In assay [2], this compound yielded an ED30 of 1.21 µg/kg. Besides, the Ki in assay [3] worked out at 0.4 µM; in assay [4], 0.037 µM.

With `Nc1nc(C#CC2(O)CCCCCCC2)nc2c1ncn2[C@@H]1O[C@H](CO)[C@@H](O)[C@H]1O`, the ED10 in assay [1] came out at 13 µg/kg. In assay [2], this compound yielded an ED30 of 0.01 µg/kg.

The values are drawn from ChEMBL document CHEMBL1126082, “Nucleosides and nucleotides. 107. 2-(cycloalkylalkynyl)adenosines: adenosine A2 receptor agonists with potent antihypertensive effects” (J Med Chem, 1992).
